From patent US9096589B2, “Heteroaromatic phenylimidazole derivatives as PDE10A enzyme inhibitors” (H. Lundbeck A/S, priority 2009, dated 2015)
pIC50: −log10 of the molar value.

Biological target: PDE10A (Homo sapiens (Human), UniProt Q9Y233)
Test: PDE10A inhibition assay
Type: biochemical
Experimental: Active PDE10A enzyme is prepared in a number of ways for use in PDE assays (Loughney, K. et al. Gene 1999, 234, 109-117; Fujishige, K. et al. Eur J. Biochem. 1999, 266, 1118-1127 and Soderling, S. et al. Proc. Natl. Acad. Sci. 1999, 96, 7071-7076). PDE10A can be expressed as full-length proteins or as truncated proteins, as long as they express the catalytic domain. PDE10A can be prepared in different cell types, for example insect cells or E. coli. An example of a method to obtain catalytically active PDE10A is as follows: The catalytic domain of human PDE10A (amino acids 440-779 from the sequence with accession number NP 006652) is amplified from total human brain total RNA by standard RT-PCR and is cloned into the BamH1 and Xho1 sites of the pET28a vector (Novagen). Expression in coli is performed according to standard protocols. Briefly, the expression plasmids are transformed into the BL21(DE3) E. coli strain, and 50 mL cultures inoculated with the cells allowed to grow to an OD600 of 0.4-0.6 before protein expression is induced with 0.5 mM IPTG. Following induction, the cells are incubated overnight at room temperature, after which the cells are collected by centrifugation. Cells expressing PDE10A are resuspended in 12 mL (50 mM TRIS-HCl-pH8.0, 1 mM MgCl2 and protease inhibitors). The cells are lysed by sonication, and after all cells are lysed, TritonX100 is added according to Novagen protocols.
A PDE10A assay may for example, be performed as follows: The assay is performed in 60 uL samples containing a fixed amount of the relevant PDE enzyme (sufficient to convert 20-25% of the cyclic nucleotide substrate); a buffer (50 mM HEPES7.6; 10 mM MgCl2; 0.02% Tween20), 0.1 mg/ml BSA, 225 pCi of ^3H-labelled cyclic nucleotide substrate, tritium labeled cAMP to a final concentration of 5 nM and varying amounts of inhibitors. Reactions are initiated by addition of the cyclic nucleotide substrate, and reactions are allowed to proceed for one hr at room temperature before being terminated through mixing with 15 uL 8 mg/mL yttrium silicate SPA beads (Amersham). The beads are allowed to settle for one hr in the dark before the plates are counted in a Wallac 1450 Microbeta counter. The measured signal can be converted to activity relative to an uninhibited control (100%) and IC50 values can be calculated using the Xlfit extension to EXCEL.

Chain of PDE10A (Q9Y233 716-1055): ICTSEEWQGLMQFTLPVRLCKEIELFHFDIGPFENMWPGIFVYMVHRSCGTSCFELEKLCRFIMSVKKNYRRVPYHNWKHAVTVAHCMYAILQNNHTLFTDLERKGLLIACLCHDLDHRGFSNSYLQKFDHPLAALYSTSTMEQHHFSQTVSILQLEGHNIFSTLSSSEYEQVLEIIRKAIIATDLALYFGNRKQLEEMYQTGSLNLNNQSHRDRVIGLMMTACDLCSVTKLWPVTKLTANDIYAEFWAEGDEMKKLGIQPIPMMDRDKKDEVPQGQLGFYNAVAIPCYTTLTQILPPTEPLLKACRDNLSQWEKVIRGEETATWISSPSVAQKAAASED

Compound	pIC50
COc1cccn2nc(CCc3nc(-c4cncs4)c[nH]3)nc12 [8-Methoxy-2-[2-(4-thiazol-5-yl-1H-imidazol-2-yl)-ethyl]-[1,2,4]triazolo[1,5-a]pyridine]	7.21
Cc1ccc(C)n2nc(CCc3nc(-c4cscn4)cn3C)nc12 [5,8-Dimethyl-2-[2-(1-methyl-4-thiazol-4-yl-1H-imidazol-2-yl)-ethyl]-[1,2,4]triazolo[1,5-a]pyridine]	9.40
Cc1ncc(C)n2nc(CCc3nc(-c4cncnc4)cn3C)nc12 [5,8-Dimethyl-2-[2-(1-methyl-4-pyrimidin-5-yl-1H-imidazol-2-yl)-ethyl]-[1,2,4]triazolo[1,5-a]pyrazine]	9.36
Cc1cc(C)n2cc(CCc3nc(-c4cccs4)cn3CC(C)C)nc2n1 [2-[2-(1-Isobutyl-4-thiophen-2-yl-1H-imidazol-2-yl)-ethyl]-5,7-dimethyl-imidazo[1,2-a]pyrimidine]	7.92
Cc1ncc(C)n2nc(CCc3nc(-c4nccs4)cn3C)nc12 [5,8-Dimethyl-2-[2-(1-methyl-4-thiazol-2-yl-1H-imidazol-2-yl)-ethyl]-[1,2,4]triazolo[1,5-a]pyrazine]	8.57
Cc1cccc2nc(CCc3nc(-c4cccs4)cn3[C@@H](C)CO)nn12 [(S)-2-{2-[2-(5-Methyl-[1,2,4]triazolo[1,5-a]pyridin-2-yl)-ethyl]-4-thiophen-2-yl-imidazol-1-yl}-propan-1-ol]	8.19
Cc1cc(C)n2nc(CCc3nc(-c4ccc(C)o4)cn3C)nc2n1 [5,7-Dimethyl-2-{2-[1-methyl-4-(5-methyl-furan-2-yl)-1H-imidazol-2-yl]-ethyl}-[1,2,4]triazolo[1,5-a]pyrimidine]	7.42
Cc1cccc2nc(CCc3nc(-c4cccs4)cn3C[C@@H](O)CCl)nn12 [(R)-1-Chloro-3-{2-[2-(5-methyl-[1,2,4]triazolo[1,5-a]pyridin-2-yl)-ethyl]-4-thiophen-2-yl-imidazol-1-yl}-propan-2-ol]	8.55
Cc1cccc2nc(CCc3nc(-c4cccs4)cn3C[C@@H](O)CN(C)CCC#N)nn12 [3-[((S)-2-Hydroxy-3-{2-[2-(5-methyl-[1,2,4]triazolo[1,5-a]pyridin-2-yl)-ethyl]-4-thiophen-2-yl-imidazol-1-yl}-propyl)-methyl-amino]-propionitrile]	5.00
Cc1cccc2nc(CCc3nc(-c4cccs4)cn3C[C@@H](O)CN(C)C(C)C)nn12 [(S)-1-(Isopropyl-methyl-amino)-3-{2-[2-(5-methyl-[1,2,4]triazolo[1,5-a]pyridin-2-yl)-ethyl]-4-thiophen-2-yl-imidazol-1-yl}-propan-2-ol]	7.01
Cc1cc(C)n2cc(CCc3nc(-c4cccs4)cn3CCC(C)C)nc2n1 [5,7-Dimethyl-2-{2-[1-(3-methyl-butyl)-4-thiophen-2-yl-1H-imidazol-2-yl]-ethyl}-imidazo[1,2-a]pyrimidine]	8.17
COc1cccn2nc(CCc3nc(-c4ccc(C)o4)cn3C)nc12 [8-Methoxy-2-{2-[1-methyl-4-(5-methyl-furan-2-yl)-1H-imidazol-2-yl]-ethyl}-[1,2,4]triazolo[1,5-a]pyridine]	7.25
COCC(O)Cn1cc(-c2cccs2)nc1CCc1nc2cccc(C)n2n1 (stereo not shown) [1-Methoxy-3-{2-[2-(5-methyl-[1,2,4]triazolo[1,5-a]pyridin-2-yl)-ethyl]-4-thiophen-2-yl-imidazol-1-yl}-propan-2-ol]	8.12
COc1ccc(C)n2nc(CCc3nc(-c4cccs4)cn3CCCC#N)nc12 [4-{2-[2-(8-Methoxy-5-methyl-[1,2,4]triazolo[1,5-a]pyridin-2-yl)-ethyl]-4-thiophen-2-yl-imidazol-1-yl}-butyronitrile]	8.77
Cc1cccc2nc(CCc3nc(-c4cccs4)c[nH]3)nn12 [5-Methyl-2-[2-(4-thiophen-2-yl-1H-imidazol-2-yl)-ethyl]-[1,2,4]triazolo[1,5-a]pyridine]	9.27
Cn1cc(-c2cccs2)nc1/C=C/c1nc2c(F)cccn2n1 [8-Fluoro-2-[(E)-2-(1-methyl-4-thiophen-2-yl-1H-imidazol-2-yl)-vinyl]-[1,2,4]triazolo[1,5-a]pyridine]	7.00
